This passage reports IC50 results from ChEMBL document CHEMBL1141627, “A cell-penetrating peptidic GRP78 ligand for tumor cell-specific prodrug therapy” (Bioorg Med Chem Lett, 2008).

Molecules are shown by their SMILES. pIC50: −log10 of the molar value. Positions of bridges follow the written chain, without caps; N, C: chain ends. Non-standard residues stand in square brackets, D forms with d. Residues, ends and D or L forms follow the SMILES beside them. *: point of attachment. X1 = CC(=O)O[C@H]1C(=O)[C@@]2(C)[C@H]([C@H](OC(=O)c3ccccc3)[C@]3(O)C[C@H](OC(=O)[C@H](OC(=O)OCc4ccc(N*)cc4)[C@@H](NC(=O)c4ccccc4)c4ccccc4)C(C)=C1C3(C)C)[C@]1(OC(C)=O)CO[C@@H]1C[C@@H]2O; Cit = NC(=O)NCCC[C@H](N)C(=O)O

In this test the test system is SJSA-1. Kind of test: Cytotoxicity against human SJSA1 cells expressing GRP78 after 6 hrs by MTT assay. Type of test: functional, cell-based. The settings on record: SJSA-1, 6 h. (Formazan colour is commonly taken as a measure of viable cells.)

Broadly, the pIC50 is −log10 of the IC50, conventionally taken in molar units. Read a high pIC50 as a low IC50. `COc1cccc2c1C(=O)c1c(O)c3c(c(O)c1C2=O)C[C@@](O)(C(=O)CO)C[C@@H]3O[C@H]1C[C@H](N)[C@H](O)[C@H](C)O1` [DOXORUBICIN] gave a negative-log IC50 (pIC50) of 8.21. Consider `CC(=O)N[C@H]1CSSC[C@@H](C(=O)N[C@H](C(=O)N[C@@H](CCCNC(N)=O)C(=O)N[C@H](C(=O)N[C@@H](CCCNC(N)=O)C(=O)Nc2ccc(COC(=O)O[C@@H](C(=O)O[C@H]3C[C@@]4(O)[C@@H](OC(=O)c5ccccc5)[C@@H]5[C@]6(OC(C)=O)CO[C@@H]6C[C@H](O)[C@@]5(C)C(=O)[C@H](OC(C)=O)C(=C3C)C4(C)C)[C@@H](NC(=O)c3ccccc3)c3ccccc3)cc2)C(C)C)C(C)C)NC(=O)[C@H](C(C)C)NC(=O)[C@H](CCCNC(=N)N)NC(=O)[C@H](C(C)C)NC(=O)[C@H](Cc2ccc(O)cc2)NC(=O)CNC(=O)CNC(=O)[C@@H]2CCCN2C(=O)[C@H](CC(C)C)NC(=O)[C@H](C)NC(=O)[C@H](C(C)C)NC(=O)[C@H]([C@@H](C)O)NC1=O` (Ac-CTVALPGGYVRVCV[Cit]V[Cit]-X1; disulfide 1-13), for which the negative logarithm of the IC50 (pIC50) was 8.96. Regarding `CC(=O)O[C@H]1C(=O)[C@@]2(C)[C@H]([C@H](OC(=O)c3ccccc3)[C@]3(O)C[C@H](OC(=O)[C@H](O)[C@@H](NC(=O)c4ccccc4)c4ccccc4)C(C)=C1C3(C)C)[C@]1(OC(C)=O)CO[C@@H]1C[C@@H]2O` [PACLITAXEL], the pIC50 was 8.49.
